Data taken from publication PMC11233931, “Remodeling tumor‐associated macrophage for anti‐cancer effects by rational design of irreversible inhibition of mitogen‐activated protein kinase‐activated protein kinase 2” (MedComm, 2024).

What was measured:
Assay in all cases: Eurofins kinase selectivity profile against 380 other human recombinant kinases (Table S2)
Format in all cases: biochemical
[1] = molecular target: T1, 380 human recombinant protein kinases (Homo sapiens, UniProt P06213); details: IR(h), read-out: Inhibition rate
T1 construct: purchased Eurofins (Celle Lévescault)
T1 sequence (P06213 28-1382): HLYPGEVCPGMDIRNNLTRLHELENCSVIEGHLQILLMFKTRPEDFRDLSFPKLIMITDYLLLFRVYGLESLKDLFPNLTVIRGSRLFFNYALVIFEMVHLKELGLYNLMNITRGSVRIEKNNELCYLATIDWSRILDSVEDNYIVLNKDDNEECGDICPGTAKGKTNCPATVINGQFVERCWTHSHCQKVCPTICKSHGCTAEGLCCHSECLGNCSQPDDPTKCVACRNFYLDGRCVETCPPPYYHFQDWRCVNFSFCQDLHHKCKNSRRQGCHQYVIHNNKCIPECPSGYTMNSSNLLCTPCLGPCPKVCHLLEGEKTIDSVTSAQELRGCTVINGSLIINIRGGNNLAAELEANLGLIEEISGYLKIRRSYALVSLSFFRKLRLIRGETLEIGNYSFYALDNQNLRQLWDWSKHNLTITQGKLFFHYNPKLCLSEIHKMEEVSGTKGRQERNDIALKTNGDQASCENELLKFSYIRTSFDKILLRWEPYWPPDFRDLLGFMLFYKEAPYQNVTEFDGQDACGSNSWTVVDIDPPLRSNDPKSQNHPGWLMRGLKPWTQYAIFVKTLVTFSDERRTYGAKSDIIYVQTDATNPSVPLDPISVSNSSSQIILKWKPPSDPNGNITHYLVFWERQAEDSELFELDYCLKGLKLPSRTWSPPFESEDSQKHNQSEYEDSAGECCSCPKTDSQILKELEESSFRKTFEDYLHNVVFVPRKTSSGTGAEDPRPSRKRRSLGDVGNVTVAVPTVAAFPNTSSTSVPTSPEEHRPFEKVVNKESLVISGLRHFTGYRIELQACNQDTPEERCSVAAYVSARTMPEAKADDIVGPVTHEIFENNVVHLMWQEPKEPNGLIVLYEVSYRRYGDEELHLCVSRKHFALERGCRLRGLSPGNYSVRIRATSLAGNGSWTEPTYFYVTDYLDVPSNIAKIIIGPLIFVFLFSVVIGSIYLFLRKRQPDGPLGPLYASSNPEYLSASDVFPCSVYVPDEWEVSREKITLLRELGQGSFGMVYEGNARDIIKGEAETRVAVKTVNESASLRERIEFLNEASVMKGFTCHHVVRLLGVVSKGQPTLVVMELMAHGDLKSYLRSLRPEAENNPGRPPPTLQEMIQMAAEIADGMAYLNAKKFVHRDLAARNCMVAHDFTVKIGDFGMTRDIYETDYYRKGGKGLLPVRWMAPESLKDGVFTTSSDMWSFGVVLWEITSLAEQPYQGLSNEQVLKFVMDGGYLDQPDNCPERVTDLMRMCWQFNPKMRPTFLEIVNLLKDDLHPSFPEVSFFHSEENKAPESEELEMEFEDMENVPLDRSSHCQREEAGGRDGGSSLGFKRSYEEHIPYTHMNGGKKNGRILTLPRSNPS
How it was run: (§1)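 Selectivity panel of 380 human recombinant protein kinases, screened by Eurofins at a range of concentrations.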

[2] = molecular target: T2, 380 human recombinant protein kinases (Homo sapiens, UniProt Q07002); details: CDK18/cyclinY(h), read-out: Inhibition rate
T2 construct: purchased Eurofins (Celle Lévescault)
T2 sequence (Q07002 whole entry): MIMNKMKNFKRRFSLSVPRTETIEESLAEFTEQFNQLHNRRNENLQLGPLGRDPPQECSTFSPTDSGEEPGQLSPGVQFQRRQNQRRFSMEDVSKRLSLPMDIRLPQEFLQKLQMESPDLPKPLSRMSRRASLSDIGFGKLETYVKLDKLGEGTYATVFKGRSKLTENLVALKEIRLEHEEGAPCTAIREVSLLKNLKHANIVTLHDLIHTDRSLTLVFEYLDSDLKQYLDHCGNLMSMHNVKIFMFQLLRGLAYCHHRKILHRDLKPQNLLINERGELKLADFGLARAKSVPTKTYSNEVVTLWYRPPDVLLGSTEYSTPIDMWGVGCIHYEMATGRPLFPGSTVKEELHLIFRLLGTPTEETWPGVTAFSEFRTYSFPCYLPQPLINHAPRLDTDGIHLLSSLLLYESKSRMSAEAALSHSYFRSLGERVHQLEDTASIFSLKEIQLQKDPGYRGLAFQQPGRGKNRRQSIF
How it was run: as §1

[3] = molecular target: T3, 380 human recombinant protein kinases (Homo sapiens, UniProt P52333); details: JAK3(h), read-out: Inhibition rate
T3 construct: purchased Eurofins (Celle Lévescault)
T3 sequence (P52333 1-1124): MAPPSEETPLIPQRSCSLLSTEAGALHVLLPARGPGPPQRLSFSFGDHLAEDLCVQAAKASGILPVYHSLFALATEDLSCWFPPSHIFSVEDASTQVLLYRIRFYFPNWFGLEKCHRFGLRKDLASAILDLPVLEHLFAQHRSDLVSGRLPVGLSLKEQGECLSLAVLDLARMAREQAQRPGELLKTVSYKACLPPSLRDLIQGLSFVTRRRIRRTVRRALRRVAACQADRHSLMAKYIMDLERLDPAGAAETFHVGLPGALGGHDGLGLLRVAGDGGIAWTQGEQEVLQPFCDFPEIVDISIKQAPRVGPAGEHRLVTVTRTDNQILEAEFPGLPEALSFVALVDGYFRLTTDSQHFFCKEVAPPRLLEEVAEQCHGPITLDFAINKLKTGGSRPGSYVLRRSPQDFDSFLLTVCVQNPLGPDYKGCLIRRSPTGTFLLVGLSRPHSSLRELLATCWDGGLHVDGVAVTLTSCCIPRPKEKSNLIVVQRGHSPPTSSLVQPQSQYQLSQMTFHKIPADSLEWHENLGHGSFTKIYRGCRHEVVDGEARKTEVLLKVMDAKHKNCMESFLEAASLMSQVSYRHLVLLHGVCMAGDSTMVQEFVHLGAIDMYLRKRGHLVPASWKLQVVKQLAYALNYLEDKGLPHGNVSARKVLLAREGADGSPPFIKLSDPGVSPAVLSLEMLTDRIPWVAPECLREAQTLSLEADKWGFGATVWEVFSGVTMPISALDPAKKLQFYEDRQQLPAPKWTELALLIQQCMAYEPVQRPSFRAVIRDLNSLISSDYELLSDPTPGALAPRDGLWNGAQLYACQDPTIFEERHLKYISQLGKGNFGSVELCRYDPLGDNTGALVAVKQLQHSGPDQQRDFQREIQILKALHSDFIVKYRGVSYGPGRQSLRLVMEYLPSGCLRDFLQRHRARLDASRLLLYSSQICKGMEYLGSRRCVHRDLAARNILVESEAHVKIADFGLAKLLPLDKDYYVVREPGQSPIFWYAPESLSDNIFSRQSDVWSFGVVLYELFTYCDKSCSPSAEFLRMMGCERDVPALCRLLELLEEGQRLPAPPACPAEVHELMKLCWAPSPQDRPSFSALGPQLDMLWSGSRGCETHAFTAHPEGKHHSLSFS
How it was run: as §1

[4] = molecular target: T4, 380 human recombinant protein kinases (Homo sapiens, UniProt Q6SA08); details: TSSK4(h), read-out: Inhibition rate (%)
T4 construct: purchased Eurofins (Celle Lévescault)
T4 sequence (Q6SA08 1-328): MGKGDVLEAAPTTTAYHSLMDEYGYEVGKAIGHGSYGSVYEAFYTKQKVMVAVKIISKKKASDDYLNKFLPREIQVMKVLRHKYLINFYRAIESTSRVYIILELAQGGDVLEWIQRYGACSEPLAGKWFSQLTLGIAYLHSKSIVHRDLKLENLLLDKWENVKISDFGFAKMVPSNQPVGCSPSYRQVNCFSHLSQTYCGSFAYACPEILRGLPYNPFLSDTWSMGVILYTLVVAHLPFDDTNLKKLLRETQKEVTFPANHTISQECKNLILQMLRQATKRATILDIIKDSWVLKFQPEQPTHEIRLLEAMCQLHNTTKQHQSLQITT
How it was run: as §1

[5] = molecular target: T5, 380 human recombinant protein kinases (Homo sapiens, UniProt Q05513); details: PKCζ(h), read-out: Inhibition rate
T5 construct: purchased Eurofins (Celle Lévescault)
T5 sequence (Q05513 1-592): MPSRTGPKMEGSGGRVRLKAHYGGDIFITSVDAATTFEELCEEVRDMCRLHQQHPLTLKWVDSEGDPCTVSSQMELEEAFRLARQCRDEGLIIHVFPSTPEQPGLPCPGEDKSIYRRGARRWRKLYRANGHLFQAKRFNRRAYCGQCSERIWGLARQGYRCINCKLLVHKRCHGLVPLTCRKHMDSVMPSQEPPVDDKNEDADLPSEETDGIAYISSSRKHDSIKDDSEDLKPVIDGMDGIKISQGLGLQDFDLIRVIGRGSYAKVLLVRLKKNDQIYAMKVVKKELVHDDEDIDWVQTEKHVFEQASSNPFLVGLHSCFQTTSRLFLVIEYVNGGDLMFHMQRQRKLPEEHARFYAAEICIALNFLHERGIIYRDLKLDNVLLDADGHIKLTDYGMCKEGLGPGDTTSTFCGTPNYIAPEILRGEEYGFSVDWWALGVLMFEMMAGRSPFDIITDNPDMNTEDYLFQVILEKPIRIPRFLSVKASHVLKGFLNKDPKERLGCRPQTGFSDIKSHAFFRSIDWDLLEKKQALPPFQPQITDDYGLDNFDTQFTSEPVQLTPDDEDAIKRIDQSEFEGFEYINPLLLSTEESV
How it was run: as §1

[6] = molecular target: T6, 380 human recombinant protein kinases (Homo sapiens, UniProt P04049); details: c-RAF(h), read-out: Inhibition rate
T6 construct: purchased Eurofins (Celle Lévescault)
T6 sequence (P04049 whole entry): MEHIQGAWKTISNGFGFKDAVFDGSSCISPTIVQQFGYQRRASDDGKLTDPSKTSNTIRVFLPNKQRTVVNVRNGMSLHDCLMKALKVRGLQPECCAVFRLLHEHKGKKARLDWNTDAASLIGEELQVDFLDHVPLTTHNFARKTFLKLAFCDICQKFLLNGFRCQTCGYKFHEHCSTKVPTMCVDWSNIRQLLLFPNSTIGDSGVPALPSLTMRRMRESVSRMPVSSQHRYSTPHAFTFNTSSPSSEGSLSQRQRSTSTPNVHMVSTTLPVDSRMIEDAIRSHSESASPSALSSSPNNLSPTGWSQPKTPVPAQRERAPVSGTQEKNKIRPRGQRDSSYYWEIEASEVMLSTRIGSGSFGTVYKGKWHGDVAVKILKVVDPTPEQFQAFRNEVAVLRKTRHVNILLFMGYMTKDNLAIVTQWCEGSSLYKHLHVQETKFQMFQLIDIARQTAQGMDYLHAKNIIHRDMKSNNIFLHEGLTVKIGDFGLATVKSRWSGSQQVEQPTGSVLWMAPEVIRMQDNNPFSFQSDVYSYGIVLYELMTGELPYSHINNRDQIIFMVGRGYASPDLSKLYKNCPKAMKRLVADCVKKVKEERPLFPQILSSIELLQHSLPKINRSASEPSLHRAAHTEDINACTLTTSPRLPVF
How it was run: as §1

[7] = molecular target: T7, 380 human recombinant protein kinases (Homo sapiens, UniProt P29376); details: LTK(h), read-out: Inhibition rate
T7 construct: purchased Eurofins (Celle Lévescault)
T7 sequence (P29376 17-864): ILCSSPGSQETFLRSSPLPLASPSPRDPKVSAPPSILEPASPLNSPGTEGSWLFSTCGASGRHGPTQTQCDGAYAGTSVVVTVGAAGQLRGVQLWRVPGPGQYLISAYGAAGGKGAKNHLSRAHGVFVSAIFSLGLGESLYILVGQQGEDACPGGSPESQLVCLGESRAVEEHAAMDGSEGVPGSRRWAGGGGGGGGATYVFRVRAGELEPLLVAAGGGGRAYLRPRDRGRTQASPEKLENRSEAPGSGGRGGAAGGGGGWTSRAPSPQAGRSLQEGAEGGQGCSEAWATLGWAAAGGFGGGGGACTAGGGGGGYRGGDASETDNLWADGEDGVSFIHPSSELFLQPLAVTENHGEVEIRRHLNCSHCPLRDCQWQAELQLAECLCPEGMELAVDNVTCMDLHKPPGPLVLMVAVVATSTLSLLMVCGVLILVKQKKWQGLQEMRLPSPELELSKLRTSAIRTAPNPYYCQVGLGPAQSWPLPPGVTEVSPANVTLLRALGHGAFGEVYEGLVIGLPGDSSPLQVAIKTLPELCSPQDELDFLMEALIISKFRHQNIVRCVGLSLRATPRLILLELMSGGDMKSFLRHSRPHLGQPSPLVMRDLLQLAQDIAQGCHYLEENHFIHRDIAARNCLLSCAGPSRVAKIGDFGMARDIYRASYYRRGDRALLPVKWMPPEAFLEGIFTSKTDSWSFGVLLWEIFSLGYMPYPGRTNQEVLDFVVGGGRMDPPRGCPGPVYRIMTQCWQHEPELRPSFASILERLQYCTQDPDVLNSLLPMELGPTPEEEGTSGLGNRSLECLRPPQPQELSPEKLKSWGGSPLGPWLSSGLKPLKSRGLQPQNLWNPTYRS
How it was run: as §1

With C=CC(=O)Nc1cc(-c2cc(-c3cc4c([nH]3)CCNC4=O)ccn2)ccc1OC(F)(F)F [compound 11] the inhibition at 0.01 µM ([1]; 10 nM) was -9%, the inhibition at 0.1 µM ([1]; 100 nM) was -4% and the inhibition at 1 µM ([1]; 1000 nM) was -10%. The inhibition at 0.01 µM ([2]; 10 nM) was -5%, the inhibition at 0.1 µM ([2]; 100 nM) was 2% and the inhibition at 1 µM ([2]; 1000 nM) was -3%. For the same molecule, the inhibition at 0.01 µM ([3]; 10 nM) was 8%, the inhibition at 0.1 µM ([3]; 100 nM) was 5% and the inhibition at 1 µM ([3]; 1000 nM) was 12%. For the same molecule, the inhibition at 0.01 µM ([4]; 10 nM) was 3%, the inhibition at 0.1 µM ([4]; 100 nM) was 5% and the inhibition at 1 µM ([4]; 1000 nM) was 2%. For the same molecule, the inhibition at 0.01 µM ([5]; 10 nM) was -5%, the inhibition at 0.1 µM ([5]; 100 nM) was -4% and the inhibition at 1 µM ([5]; 1000 nM) was -8%. The inhibition at 0.01 µM ([6]; 10 nM) was -1%, the inhibition at 0.1 µM ([6]; 100 nM) was 2% and the inhibition at 1 µM ([6]; 1000 nM) was 1%. For the same molecule, the inhibition at 0.01 µM ([7]; 10 nM) was -6%, the inhibition at 0.1 µM ([7]; 100 nM) was 2% and the inhibition at 1 µM ([7]; 1000 nM) was 6%.
